Measured values taken from article PMC11123948, “Leucoverdazyls as Novel Potent Inhibitors of Enterovirus Replication” (Pathogens, 2024).
Counter-ions that a name gives are not always drawn.

How the values were obtained:
Coxsackie B3 virus = experiment: microbe, parasite or virus in culture; assay type: cell-based, Coxsackievirus B3 (CVB3, strain Nancy); conditions: 24 h, Coxsackie B3 virus (Nancy, original), viral yield reduction in Vero cells
in vitro [1] = conditions: African green monkey; for CC50 at 24 h: Vero cells
Protocol: (§1) Permissive cells were seeded in 96-well plates in Eagle’s minimal essential medium (MEM) supplemented with 10% FBS. After 24 h, the medium was removed, and the wells were washed with saline. Compounds w [...

[2] = Cytotoxicity assay (MTT) in RD cells; assay type: cell-based; conditions: human, 24 h incubation with compound only
CVA16 = experiment: Viral yield reduction assay, CVA16; assay type: cell-based, Coxsackievirus A16 (clinical isolate); conditions: CVA16, RD cells
CVB5 = experiment: Viral yield reduction assay, CVB5; assay type: cell-based, Coxsackievirus B5 (clinical isolate); conditions: CVB5, Vero cells
ECHO30 = experiment: Viral yield reduction assay, ECHO30; assay type: cell-based, ECHO30 (clinical isolate); conditions: ECHO30, RD cells
CVA24 = experiment: Viral yield reduction assay, CVA24; assay type: cell-based, Coxsackievirus A24 (clinical isolate); conditions: CVA24, RD cells
CVB4 (strain Powers) = experiment: Viral yield reduction assay, CVB4; assay type: cell-based, Coxsackievirus B4 (CVB4; conditions: Vero cells
[3] = tested on: Influenza A/Puerto Rico/8/34; experiment: Viral yield reduction assay, influenza A; assay type: cell-based, Influenza A virus (strain A/Puerto Rico/8/1934 (H1N1)); conditions: Influenza A virus, Influenza A/Puerto Rico/8/34, MDCK cells
[4] = tested on: Influenza B/Florida/04/06; experiment: microbe, parasite or virus in culture; assay type: cell-based, influenza B virus (strain B/Florida/04/06, Yamagata lineage); conditions: MDCK
HSV1 = experiment: microbe, parasite or virus in culture; assay type: cell-based, herpes simplex virus type 1; conditions: Human alphaherpesvirus 1; HSV1, Vero cells, viral yield reduction
Ad5 = experiment: microbe, parasite or virus in culture; assay type: cell-based, human adenovirus type 5; conditions: Human mastadenovirus C, A549
SARS-CoV-2 = experiment: Viral yield reduction assay, SARS-CoV-2; assay type: cell-based, SARS-CoV-2 virus (Wuhan strain); conditions: Severe acute respiratory syndrome coronavirus 2, SARS-CoV-2, Vero cells
[5] = Antioxidant activity, DPPH assay; assay type: physicochemical; conditions: DPPH 200 μM in methanol, 30 min at 30 °C; vitamin C as reference; result in words
Protocol: Antioxidant activity was evaluated by spectrophotometric monitoring of the hydrogen transfer reaction with a stable chromogen radical, 2,2-diphenyl-1-picrylhydrazyl (DPPH, Sigma-Aldrich, St. Louis, MO, USA), using vitamin C (Vc) as described before. A solution of DPPH in methanol with a concentration of 200 μM was added to a solution of dihydrotetrazines in the same solvent (concentrations 5 to 50 μM). The reaction vessel (test tube) was wrapped in foil and kept for 30 min at 30 °C, and the optical density was measured at λ 517 nm (DPPH absorption maximum). The antioxidant activity (AO) was calculated by the formula AO = (1 − Atest/Acontr) × 100%, where Atest is the optical density of a solution containing a compound to be tested and DPPH, and Acontr is the optical density of a solution containing DPPH alone. The half-inhibitory concentration (IC50) corresponding to the reduction of the initial DPPH concentration by 50% was determined from the DPPH inhibition percentage plotted against concentrations of compounds 2 through 5 (Figure 1) using the OriginPro 8.5 program (OriginLab Corporation, Northampton, MA, USA) (Model DoseResp).

CVB4 Powers = experiment: Thermostability assay; set-up: species or system Coxsackievirus B4 (CVB4, strain Powers); conditions: compound 10 µg/mL, thermal gradient 37–55 °C for 2 min
Protocol: The thermostability assay was performed as described previously. The CVB4 strain was chosen because it is sensitive to the pleconaril used in this assay as a reference compound. The compound concentration used in the assay was selected according to the results of preliminary thermostability assays. Briefly, CVB4 Powers (10^4 TCID50) was pre-incubated with the compound (10 µg/mL), pleconaril (10 µg/mL), or an equal volume of MEM (virus control) for 30 min at +37 °C in sterile thin-walled 200 μl PCR-tubes (5 tubes per each treatment condition) in a BioRad CFX PCR-machine (BioRad Laboratories, Inc., Hercules, CA, USA). Then, a thermal gradient of 37–55 °C for 2 min, followed by rapid cooling to 4 °C, was applied. Subsequently, the infectious viral activities of the samples were quantified by end-point dilution assay.

CVB4 = experiment: Time-of-addition assay; assay type: cell-based, Coxsackievirus B4 (CVB4, strain Powers); conditions: CVB4 in Vero cells, 1a 5 μg/mL; for Interval of addition with highest inhibitory activity: pleconaril 10 μg/mL, titer at 8 h
CVB3 R = experiment: microbe, parasite or virus in culture; assay type: cell-based, Coxsackievirus B3 (Nancy strain), passaged with 1a; conditions: Enterovirus B, CVB3, Vero
CVB3 WT = experiment: microbe, parasite or virus in culture; assay type: cell-based, Coxsackievirus B3 (Nancy strain), passaged without 1a; conditions: Enterovirus B, CVB3, Vero
CVB3-WT and -R variants = experiment: Growth kinetics of CVB3 WT and R variants with and without 1a; assay type: cell-based, Coxsackievirus B3; conditions: Vero cells, MOI 0.001, 1a 7 ug/mL, up to 72 h
in vitro [6] = conditions: dog
in vitro [7] = conditions: human
Vero cells = experiment: Cytotoxicity assay (MTT) in Vero cells
Protocol: as §1

CVB3 virus = experiment: Transmission electron microscopy of CVB3-infected Vero cells; conditions: MOI 100, 100 µM 1a, 3 h, TEM
Protocol: Vero cells in 6-well plates were incubated with CVB3 virus, MOI = 100, at 4 °C for 1 h. Unbound virions were removed by washing the cells twice with cold MEM; a medium containing 100 µM of 1a was added. […] Cells were incubated for 3 h at 36 °C in 5% CO2. In wells with control virus, MEM without 1a was added. After incubation, cells were collected from the wells, transferred into tubes, and centrifuged at 2000× g for 15 min. Cell pellets were fixed with 1.5% glutaraldehyde in PBS overnight, followed by post-fixation with 1.5% OsO4 for 1 h and uranyl acetate for 45 min at room temperature. They were then dehydrated in graded acetone and embedded in Epon/Araldit resin (Serva Feinbiochemica, Heidelberg, Germany). Thin sections (90 nm) were stained with lead citrate and examined in a JEM-100S electron microscope (JEOL, Tokyo, Japan).

RD cells = experiment: Cytotoxicity assay (MTT) in RD cells; assay type: cell-based; conditions: 24 h incubation with compound only

## C=CC1N(c2nc3ccccc3s2)N=C(c2ccccc2)NN1c1ccc(I)cc1 (stereo not shown) [Compound 4d]
Coxsackie B3 virus; Enterovirus B, B3, Vero
  IC50: 51.6 ± 6.4 µM
In vitro [1]
  CC50 at 24 h: 1530 ± 17.2 µM

## CC1N(c2nc3ccccc3s2)N=C(c2ccccc2)NN1c1ccccc1 (stereo not shown) [Compound 2a]
Coxsackie B3 virus; Enterovirus B, B3, Vero
  IC50: 6.49 ± 0.8 µM
In vitro [1]
  CC50 at 24 h: > 325 µM

## c1ccc(C2=NN(c3nc4ccccc4s3)CN(c3ccccc3)N2)cc1 [Compound 1a]
Coxsackie B3 virus
  IC50: 1.8 ± 0.3 µM
Coxsackie B3 virus; Enterovirus B, B3, Vero
  IC50: 2.7 µM
[2]
  CC50 at 24 h: 673 ± 60.1 µM
CVA16; Enterovirus A
  IC50: 0.8 ± 0.2 µM
CVB5; Enterovirus B
  IC50: 1.5 ± 0.3 µM
ECHO30
  IC50: 1.6 ± 0.4 µM
CVA24; Enterovirus C
  IC50: 0.9 ± 0.3 µM
CVB4 (strain Powers); Enterovirus B
  IC50: 1.7 ± 0.5 µM
[3]
  IC50: 38.7 ± 2.9 µM
[4]
  IC50: 40.5 ± 5.1 µM
HSV1
  IC50: 46.3 ± 4.4 µM
Ad5
  IC50: 43.1 ± 3.8 µM
SARS-CoV-2
  IC50: 4.5 ± 1.2 µM
[5]
  Antioxidant activity (DPPH assay): most pronounced antioxidant activity
CVB4 Powers
  Thermostabilizing effect on virion (infectious particles after heating): no infectious particles were detected when heated above 45 degrees
CVB4; added later than 6 h after adsorption of the virus
  Inhibition of viral replication on late addition: Inhibition of viral replication was not observed
CVB4
  Interval of addition with highest inhibitory activity: from −2 to 4 h post-infection
CVB3 R
  IC50: 12.9 µM
CVB3 WT
  IC50: 480 nM
CVB3-WT and -R variants
  Propagation of CVB3 strains in presence of 1a: the resistant strain was able to effectively propagate in contrast to the wild-type virus
In vitro [1]
  CC50: 451 ± 51.2 µM
  CC50 at 24 h: 620 ± 52.7 µM
In vitro [6]
  CC50: 850 ± 78.3 µM
In vitro [7]
  CC50: 501 ± 45.7 µM
Vero cells; SARS-CoV-2 row, 48 h or 24 h depending on virus life cycle, MTT
  CC50: 656 ± 70.4 µM
CVB3 virus
  Examined cells with no replication organelles visible: 47 out of 49

## Brc1ccc(N2CN(c3nc4ccccc4s3)N=C(c3ccccc3)N2)cc1 [Compound 1d]
Coxsackie B3 virus; Enterovirus B, B3, Vero
  IC50: 6.2 ± 1.9 µM
In vitro [1]
  CC50 at 24 h: 886 ± 90.4 µM

## Cc1cc(CCCOc2c(C)cc(-c3noc(C(F)(F)F)n3)cc2C)on1 [Pleconaril, reference compound]
Coxsackie B3 virus; Enterovirus B, B3, Vero
  IC50: 15.2 ± 1.6 µM
CVB4 Powers
  Thermostabilizing effect on virion (infectious particles after heating): had a thermostabilizing effect
CVB4
  Interval of addition with highest inhibitory activity: between −2 and 0 h
In vitro [1]
  CC50 at 24 h: 656 ± 58.4 µM

## CCC1N(c2nc3ccccc3s2)N=C(c2ccccc2)NN1c1ccc(OC)cc1 (stereo not shown) [Compound 3b]
Coxsackie B3 virus; Enterovirus B, B3, Vero
  IC50: 60.1 ± 7.2 µM
In vitro [1]
  CC50 at 24 h: 2330 ± 25.3 µM

## COc1ccc(N2CN(c3nc4ccccc4s3)N=C(c3ccccc3)N2)cc1 [Compound 1b]
Coxsackie B3 virus; Enterovirus B, B3, Vero
  IC50: 5.4 ± 1.1 µM
[5]
  Antioxidant activity (DPPH assay): most pronounced antioxidant activity
In vitro [1]
  CC50 at 24 h: > 1350 µM

## C=CC1N(c2nc3ccccc3s2)N=C(c2ccccc2)NN1c1ccccc1 (stereo not shown) [Compound 4a]
Coxsackie B3 virus; Enterovirus B, B3, Vero
  IC50: > 126 µM
In vitro [1]
  CC50 at 24 h: > 315 µM

## C=CC1N(c2nc3ccccc3s2)N=C(c2ccccc2)NN1c1ccc(OC)cc1 (stereo not shown) [Compound 4b]
Coxsackie B3 virus; Enterovirus B, B3, Vero
  IC50: > 117 µM
In vitro [1]
  CC50 at 24 h: > 293 µM

## C=CC1N(c2nc3ccccc3s2)N=C(c2ccccc2)NN1c1ccc(Cl)cc1 (stereo not shown) [Compound 4c]
Coxsackie B3 virus; Enterovirus B, B3, Vero
  IC50: 27.9 ± 3.3 µM
In vitro [1]
  CC50 at 24 h: > 291 µM

## N=C(N)N [Guanidine hydrochloride, reference compound]
RD cells
  CC50: > 10.5 mM
CVA16
  IC50: 337 ± 28.3 µM
CVB5
  IC50: 474 ± 33.4 µM
ECHO30
  IC50: 126 ± 18.2 µM
CVA24
  IC50: 314 ± 20.1 µM
CVB4 (strain Powers)
  IC50: 496 ± 26.5 µM
Vero cells; 24 h incubation with compound only, MTT (Table 2)
  CC50: > 5240 µM

## CC1N(c2nc3ccccc3s2)N=C(c2ccccc2)NN1c1ccc(Br)cc1 (stereo not shown) [Compound 2e]
Coxsackie B3 virus; Enterovirus B, B3, Vero
  IC50: > 69.1 µM
In vitro [1]
  CC50 at 24 h: 69.1 ± 5.9 µM

## CCc1ccc(N2NC(c3ccccc3)=NN(c3nc4ccccc4s3)C2C)cc1 (stereo not shown) [Compound 2c]
Coxsackie B3 virus; Enterovirus B, B3, Vero
  IC50: > 121 µM
In vitro [1]
  CC50 at 24 h: > 303 µM

## CC1N(c2nc3ccccc3s2)N=C(c2ccccc2)NN1c1ccc(F)cc1 (stereo not shown) [Compound 2d]
Coxsackie B3 virus; Enterovirus B, B3, Vero
  IC50: > 49.6 µM
In vitro [1]
  CC50 at 24 h: 49.6 ± 3.7 µM

## COc1ccc(N2NC(c3ccccc3)=NN(c3nc4ccccc4s3)C2C)cc1 (stereo not shown) [Compound 2b]
Coxsackie B3 virus; Enterovirus B, B3, Vero
  IC50: 24.1 ± 3.2 µM
In vitro [1]
  CC50 at 24 h: 2050 ± 198 µM

## CCC1N(c2nc3ccccc3s2)N=C(c2ccccc2)NN1c1ccc(Br)cc1 (stereo not shown) [Compound 3e]
Coxsackie B3 virus; Enterovirus B, B3, Vero
  IC50: > 210 µM
In vitro [1]
  CC50 at 24 h: 946 ± 89.6 µM

## Clc1ccc(N2CN(c3nc4ccccc4s3)N=C(c3ccccc3)N2)cc1 [Compound 1c]
Coxsackie B3 virus; Enterovirus B, B3, Vero
  IC50: 7.4 ± 2.2 µM
In vitro [1]
  CC50 at 24 h: 321 ± 28.2 µM

## CCC1N(c2nc3ccccc3s2)N=C(c2ccccc2)NN1c1ccc(F)cc1 (stereo not shown) [Compound 3c]
Coxsackie B3 virus; Enterovirus B, B3, Vero
  IC50: 71.9 ± 6.4 µM
In vitro [1]
  CC50 at 24 h: 360 ± 41.7 µM

## CCC1N(c2nc3ccccc3s2)N=C(c2ccccc2)NN1c1ccccc1 (stereo not shown) [Compound 3a]
Coxsackie B3 virus; Enterovirus B, B3, Vero
  IC50: > 125 µM
In vitro [1]
  CC50 at 24 h: > 313 µM
